According to patent US9321785B2, “Methods for the treatment or prophylaxis of thrombosis or embolism” (IPCA Laboratories Limited, priority 2010, dated 2016):
Like-named read-outs stand apart in the source and are kept apart here.

Assays:
[1] = Activity of clopidogrel metabolite; settings: metabolite in the clopidogrel pathway
Text: Thus, the influence that the patient's ability to metabolize has on efficacy is reduced.

[2] = tested on: recurrent ischemic events / major bleeding events; settings: cited from earlier work
[3] = tested on: ADP induced platelet aggregation; settings: cited from earlier work; for Time until 50% inhibition of ADP induced platelet aggregation is reached: 5 μM ADP ex vivo, LTA
[4] = rat; cited from earlier work
[5] = cited from earlier work
[6] = tested on: venous thrombus in vena cava; assay: Venous thrombosis on a screw thread (antithrombotic activity); assay type: in vivo, rat; settings: for % inhibition / Weight of thrombus: thrombus after 5 h
Text: The antithrombotic activity has also been studied in the test of venous thrombosis on a screw thread described by Kumada T. et al. in Thromb. Res 18 p. 189 (1980). Female rats of the same type as those previously described, in groups of 10 animals, were anesthetized with diethyl ether and their vena cava was isolated after abdominal incision. […] The thrombi formed rapidly and five hours later, under pentobarbital anesthesia, the abdomen is reopened and ligatures are placed above and below the screw thread which is withdrawn after longitudinal incision of the vein and the isolated thrombus is weighed. […] The control is without drug.

[7] = tested on: ADP induced platelet aggregation (platelet-rich plasma); assay: Measurement of platelet aggregation with ADP, ex vivo after oral administration; assay type: in vivo, rat; settings: 2 h before sampling, ADP 2.5 μM
Experimental: The platelet aggregation inhibiting activities and the antithrombotic activities of the compounds were studied in the rat by standard methods. The activity on the aggregation of plates induced by ADP or collagen was determined ex-vivo. […] The aggregating solutions used were: a 500 μM aqueous solution of ADP (final concentration 2.5 μM). The aggregation of the platelets was monitored as described by Born (Nature 194, p. 927 […]), which is incorporated herein by reference, using a Coultronics® aggregometer at a temperature of 37° C. and agitation of 900 rpm. For aggregation with ADP, the aggregometer generates a curve representing a platelet aggregation as measured by a change in optical density. The height of this curve is defined as the height of aggregation. […] The controls are without drug.

[8] = patients at high risk of vascular events
[9] = combined with Aspirin therapy, patients with ACS

O=C(O)[C@H](c1ccccc1Cl)N1CCc2sccc2C1 [Formula IV]
Activity of the metabolite [1]: inactive

CC(=O)Oc1ccccc1C(=O)O [Aspirin]
Absolute risk increase (ARI), major bleeding events [2, 8]: about 0.5%
Absolute risk reduction (ARR), recurrent ischemic events [2, 8]: about 2%
Increase in the odds of major bleeding events [2, 8]: about 60%
Reduction of the risk of recurrent ischemic events [2, 8]: 22%

COC(=O)[C@H](c1ccccc1Cl)N1CCc2sccc2C1 [Clopidogrel, (+)-(S)-methyl 2-(2-chlorophenyl)-2-(6,7-dihydrothieno[3,2-c]pyridin-5(4H)-yl)acetate]
Time until 50% inhibition of ADP induced platelet aggregation is reached ([3]; dose 600 mg): 2 h
Inhibition of ADP induced platelet aggregation ([3]; dose 900 mg, 5 μM ADP): 60%
Inhibition of platelet aggregation ([3]; dose 900 mg, 20 μM ADP ex vivo): less than 50%
Time until 50% inhibition of ADP induced platelet aggregation is reached ([3]; loading dose 300 mg): 4 to 6 h
Lethal dose [4]: about 5000 mg per kg
Fraction converted to clopidogrel acid in vivo [5]: 90%
Absolute risk reduction (ARR), recurrent ischemic events [2, 9]: about 2.1%
Further reduction of the risk of recurrent ischemic events [2, 9]: 20%

COC(=O)[C@H](c1ccccc1Cl)N1CCc2sccc2C1 [Clopidogrel bisulphate]
% inhibition ([6]; dose 10 mg/kg (base 7.69 mg/kg)): 67%
Weight of thrombus ([6]; dose 10 mg/kg (base 7.69 mg/kg), control 3.9 ± 0.3): 1.26 ± 0.19 mg
% inhibition ([6]; dose 20 mg/kg (base 15.38 mg/kg)): 69%
Weight of thrombus ([6]; dose 20 mg/kg (base 15.38 mg/kg), control 3.9 ± 0.3): 1.20 ± 0.13 mg
inhibition at 12.5 mg/kg ([7]; Rattus norvegicus, Platelet, oral dose 12.5 mg/kg (base 9.813 mg/kg)): 82%
inhibition at 25 mg/kg ([7]; Rattus norvegicus, Platelet, oral dose 25 mg/kg (base 19.225 mg/kg)): 89%
% aggregation (height) ([7]; oral dose 12.5 mg/kg (base 9.813 mg/kg), control 103 ± 3): 19 ± 4%
% aggregation (height) ([7]; oral dose 25 mg/kg (base 19.225 mg/kg), control 103 ± 3): 11 ± 1%

COC(=O)[C@H](c1ccccc1Cl)N1CCC2SC(=O)C=C2C1 (stereo partly drawn) [Thiolactone, Methyl(S)-2(2-chlorophenyl)-2-(2,4,5,6,7,7a-hexahydrothieno[3,2-c]-5-pyridin-2-one)acetate]
Antithrombotic activity compared with clopidogrel ([6]; Table 2): superior to clopidogrel
% inhibition ([6]; dose 12.5 mg/kg (base 12.5 mg/kg)): 76%
Weight of thrombus ([6]; dose 12.5 mg/kg (base 12.5 mg/kg), control 4.18 ± 0.31): 1.18 ± 0.18 mg
inhibition at 2.5 mg/kg ([7]; Rattus norvegicus, Platelet, oral dose 2.5 mg/kg (base 2.5 mg/kg)): 95%
% aggregation (height) ([7]; oral dose 2.5 mg/kg (base 2.5 mg/kg), control 94 ± 1): 4 ± 2%
